Laboratory results as given in PubChem BioAssay AID1259411 (Chemical Carcinogenesis Research Information System (CCRIS), 2018).
Active and inactive are the calls of the source. No rule for the calls is given here.

Test system: rodent carcinogenicity bioassays, tumor incidence
Test: CCRIS carcinogenicity studies
Summary of the method: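 NCI-built, expert-reviewed records of carcinogenicity and related test outcomes (mutagenicity, tumor promotion/inhibition) compiled from published and report sources, historical span 1985-2011, not updated.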

Question: Which results are given for `O=[O+][O-]`?
Answer: carcinogen call (Species: MOUSE, Strain/Sex: B6C3F1/FEMALE, Route: INHALATION, Dose: 0, 0.12, 0.5, 1 PPM 6 HR/D 5 D/WK FOR 105 WK (STUDY DURATION: 105 WK), Dose: 0, 0.12, 0.5, 1 PPM 6 HR/D 5 D/WK FOR 105 WK (STUDY DURATION: 105 WK), Tumor Site: Type of Lesion: LUNG (ALVEOLAR/BRONCHIOLAR): ADENOMA OR CARCINOMA): active; positive; carcinogen call (Species: MOUSE, Strain/Sex: B6C3F1/FEMALE, Route: INHALATION, Dose: 0, 0.5, 1 PPM 6 HR/D 5 D/WK FOR 130 WK (STUDY DURATION: 130 WK), Dose: 0, 0.5, 1 PPM 6 HR/D 5 D/WK FOR 130 WK (STUDY DURATION: 130 WK), Tumor Site: Type of Lesion: LUNG (ALVEOLAR/BRONCHIOLAR): ADENOMA): active; positive; carcinogen call (Species: MOUSE, Strain/Sex: B6C3F1/MALE, Route: INHALATION, Dose: 0, 0.12, 0.5, 1 PPM 6 HR/D 5 D/WK FOR 105 WK (STUDY DURATION: 105 WK), Dose: 0, 0.12, 0.5, 1 PPM 6 HR/D 5 D/WK FOR 105 WK (STUDY DURATION: 105 WK), Tumor Site: Type of Lesion: LUNG: ALVEOLAR/BRONCHIOLAR ADENOMA OR CARCINOMA): equivocal; carcinogen call (Species: MOUSE, Strain/Sex: B6C3F1/MALE, Route: INHALATION, Dose: 0, 0.5, 1 PPM 6 HR/D 5 D/WK FOR 130 WK (STUDY DURATION: 130 WK), Dose: 0, 0.5, 1 PPM 6 HR/D 5 D/WK FOR 130 WK (STUDY DURATION: 130 WK), Tumor Site: Type of Lesion: LUNG: ALVEOLAR/BRONCHIOLAR ADENOMA OR CARCINOMA): equivocal; carcinogen call (Species: RAT, Strain/Sex: F344/FEMALE, Route: INHALATION, Dose: 0, 0.12, 0.5, 1 PPM 6 HR/D 5 D/WK FOR 20 MO (STUDY DURATION: 20 MO), Dose: 0, 0.12, 0.5, 1 PPM 6 HR/D 5 D/WK FOR 20 MO (STUDY DURATION: 20 MO)): inactive; negative; carcinogen call (Species: RAT, Strain/Sex: F344/FEMALE, Route: INHALATION, Dose: 0, 0.12, 0.5, 1 PPM 6 HR/D 5 D/WK FOR 105 WK (STUDY DURATION: 105 WK), Dose: 0, 0.12, 0.5, 1 PPM 6 HR/D 5 D/WK FOR 105 WK (STUDY DURATION: 105 WK)): inactive; negative; carcinogen call (Species: RAT, Strain/Sex: F344/FEMALE, Route: INHALATION, Dose: 0, 0.5, 1 PPM 6 HR/D 5 D/WK FOR 125 WK (STUDY DURATION: 125 WK), Dose: 0, 0.5, 1 PPM 6 HR/D 5 D/WK FOR 125 WK (STUDY DURATION: 125 WK)): inactive; negative; carcinogen call (Species: RAT, Strain/Sex: F344/MALE, Route: INHALATION, Dose: 0, 0.12, 0.5, 1 PPM 6 HR/D 5 D/WK FOR 20 MO (STUDY DURATION: 20 MO), Dose: 0, 0.12, 0.5, 1 PPM 6 HR/D 5 D/WK FOR 20 MO (STUDY DURATION: 20 MO)): inactive; negative; carcinogen call (Species: RAT, Strain/Sex: F344/MALE, Route: INHALATION, Dose: 0, 0.12, 0.5, 1 PPM 6 HR/D 5 D/WK FOR 105 WK (STUDY DURATION: 105 WK), Dose: 0, 0.12, 0.5, 1 PPM 6 HR/D 5 D/WK FOR 105 WK (STUDY DURATION: 105 WK)): inactive; negative; carcinogen call (Species: RAT, Strain/Sex: F344/MALE, Route: INHALATION, Dose: 0, 0.5, 1 PPM 6 HR/D 5 D/WK FOR 125 WK (STUDY DURATION: 125 WK), Dose: 0, 0.5, 1 PPM 6 HR/D 5 D/WK FOR 125 WK (STUDY DURATION: 125 WK)): inactive; negative

Question: With `O=S(=O)(O)OCc1ccc2ccc3cccc4ccc1c2c34` as the compound, how does the carcinogen call (Species: RAT, Strain/Sex: SPRAGUE-DAWLEY/FEMALE, Route: SUBCUTANEOUS, Dose: 0, 0.2 UMOL IN 0.1 ML SESAME OIL:DMSO (9:1) 1/2 D FOR 20 DOSES (STUDY DURATION: 52 WK), Tumor Site: Type of Lesion: INJECTION SITE: SARCOMA) read?
Answer: active; positive

Question: Which results are given for `CN1C(=O)C[C@@H](C(=O)N[C@@H](Cc2cnc[nH]2)C(=O)N2CCC[C@H]2C(N)=O)NC1=O`?
Answer: carcinogen call (Species: MOUSE, Strain/Sex: CD-1/FEMALE, Route: GAVAGE, Dose: 0, 5, 15, 50 MG/KG 1/D 7 D/WK FOR 104 WK (STUDY DURATION: 104 WK), Dose: 0, 5, 15, 50 MG/KG 1/D 7 D/WK FOR 104 WK (STUDY DURATION: 104 WK)): inactive; negative; carcinogen call (Species: MOUSE, Strain/Sex: CD-1/MALE, Route: GAVAGE, Dose: 0, 5, 15, 50 MG/KG 1/D 7 D/WK FOR 104 WK (STUDY DURATION: 104 WK), Dose: 0, 5, 15, 50 MG/KG 1/D 7 D/WK FOR 104 WK (STUDY DURATION: 104 WK)): inactive; negative; carcinogen call (Species: RAT, Strain/Sex: STRAIN-CD/FEMALE, Route: GAVAGE, Dose: 0, 20, 60, 200 MG/KG 1/D 7 D/WK FOR 94 WK (STUDY DURATION: 94 WK), Dose: 0, 20, 60, 200 MG/KG 1/D 7 D/WK FOR 94 WK (STUDY DURATION: 94 WK)): inactive; negative; carcinogen call (Species: RAT, Strain/Sex: STRAIN-CD/MALE, Route: GAVAGE, Dose: 0, 20, 60, 200 MG/KG 1/D 7 D/WK FOR 90 WK (STUDY DURATION: 90 WK), Dose: 0, 20, 60, 200 MG/KG 1/D 7 D/WK FOR 90 WK (STUDY DURATION: 90 WK)): inactive; negative

Question: How did the carcinogen call (Species: RAT, Strain/Sex: CD-1/MALE,FEMALE, Route: ORAL, Dose: 25, 50, 150, 300, 600 MG/KG/D IN DIET FOR 60 WK, Dose: 25, 50, 150, 300, 600 MG/KG/D IN DIET FOR 60 WK, Tumor Site: Type of Lesion: THYROID GLAND: ADENOMA OR NODULES) turn out when `Cc1cc(NS(=O)(=O)c2ccc(N)cc2)no1` was run?
Answer: active; positive

Question: `COc1cc(-c2ccc(N/N=C3/C(=O)c4c(N)cc(S(=O)(=O)O)cc4C=C3S(=O)(=O)O)c(OC)c2)ccc1N/N=C1/C(=O)c2c(N)cc(S(=O)(=O)O)cc2C=C1S(=O)(=O)O` was tested. Which carcinogen call (Species: RAT, Strain/Sex: F344/FEMALE, Route: ORAL, Dose: 0, 630, 1250, 2500 PPM IN DRINKING WATER FOR 22 MO (STUDY DURATION: 22 MO), Dose: 0, 630, 1250, 2500 PPM IN DRINKING WATER FOR 22 MO (STUDY DURATION: 22 MO), Tumor Site: Type of Lesion: CLITORAL GLAND: ADENOMA, CARCINOMA, LIVER: NEOPLASTIC NODULE OR HEPATOCELLULAR CARCINOMA, ORAL CAVITY (TONGUE OR PHARYNX, Tumor Site: Type of Lesion: CLITORAL GLAND: ADENOMA, CARCINOMA, LIVER: NEOPLASTIC NODULE OR HEPATOCELLULAR CARCINOMA, ORAL CAVITY (TONGUE OR PHARYNX) did it give?
Answer: active; positive

Question: What about the carcinogen call (Species: RAT, Strain/Sex: F344/MALE, Route: ORAL, Dose: 0, 630, 1250, 2500 PPM IN DRINKING WATER FOR 22 MO (STUDY DURATION: 22 MO), Dose: 0, 630, 1250, 2500 PPM IN DRINKING WATER FOR 22 MO (STUDY DURATION: 22 MO), Tumor Site: Type of Lesion: LARGE INTESTINE: ADENOMATOUS POLYP OR ADENOCARCINOMA, LIVER: NEOPLASTIC NODULE OR HEPATOCELLULAR CARCINOMA, ORAL CAVITY, Tumor Site: Type of Lesion: LARGE INTESTINE: ADENOMATOUS POLYP OR ADENOCARCINOMA, LIVER: NEOPLASTIC NODULE OR HEPATOCELLULAR CARCINOMA, ORAL CAVITY) of the same compound?
Answer: active; positive

Question: Which results are given for `c1ccc2c(c1)ccc1nc3ccc4ccccc4c3cc12`?
Answer: carcinogen call (Species: MOUSE, Route: DERMAL, Tumor Site: Type of Lesion: INTEGUMENTARY SYSTEM (SKIN)): active; positive; carcinogen call (Species: MOUSE, Route: SUBCUTANEOUS, Tumor Site: Type of Lesion: LUNG): active; positive; carcinogen call (Species: MOUSE, Strain/Sex: HSD:ICR(BR)/FEMALE, Route: DERMAL, Dose: 0, 50 NMOL IN 50 µL ACETONE 2/WK FOR 99 WK (STUDY DURATION: 99 WK), Tumor Site: Type of Lesion: SKIN: TUMOR): active; positive; carcinogen call (Species: RAT, Strain/Sex: OSBORNE-MENDEL/FEMALE, Route: LUNG IMPLANT, Dose: 0, 0.1, 0.3, 1.0 MG IN BEESWAX/TRICAPRYLIN (STUDY DURATION: LIFETIME), Dose: 0, 0.1, 0.3, 1.0 MG IN BEESWAX/TRICAPRYLIN (STUDY DURATION: LIFETIME)): inactive; negative
